Earlier results in US9468597B1, “Stabilized L-ascorbic acid skin serum” (Dr. Perry Skindustries, LLC, priority 2013, dated 2016).

Legend:
[1] = without exposure to light
[2] = system: skin; details: 18% or 10% concentration placed under a patch for 4 days

- half-life [1]: about 4 day
SMILES: O=C1O[C@H]([C@@H](O)CO)C(O)=C1O [vitamin C, L-ascorbic acid]
- skin irritation [2]: Neither an 18% nor a 10% concentration irritated the skin
